# Reference: patent US7507335B2, “Dendrimer fluid purification agent and article” (KWG Technology, priority 2003, dated 2009)
# Like-named read-outs stand apart in the source and are kept apart here.
# Legend:
# [1] = test system: Pseudomonas aerugentoas; assay: Paper disc zone of inhibition test (Example Two); type: cell-based; conditions: 6-millimeter disc, 10 microliters, 24 hours
# Procedure: (§1) A second sample of a dendrimer silver complex was tested against various concentrations of silver nitrate against both E. coli and Pseudomonas aerugentoas. The experiment was performed as follows: • 1. Prepare an inoculum of the test organisms by streaking the entire surface of agar plates, by the standard method for colony isolation, with ether E. coli or pseudomonas aerugentoas. The plates were incubated at 370 C for approximately 18 hours. • 2. Harvest all the growth on the test organism plates by flooding the plats with 9.0 ml of sterile distilled water per plate. Wash the harvested biomass by centrifugation for 1 hour at 3000 rpm, discarding the supernatant fluid, and resuspending in 9.0 ml of sterile distilled water. Resuspend harvested cell by vortex agitation for 1 minute. • 3. Inoculate test plates with 0.2 ml with the test organism prepare as described above. • 4. Place sterile 6-millimeter blank paper Discs on test plates and saturate with 10 microliters of the test substances. • 5. […]
# [2] = test system: E. coli; type: cell-based; conditions: 6-millimeter disc, 10 microliters, 24 hours
# Procedure: as §1
structure (smiles),measurement,setting,value
O=[N+]([O-])[O-].[Ag+] [Silver Nitrate],Pseudomonas (diameter of inhibitory zone),[1]; 0.5% Silver Nitrate,12 millimeters
same,Pseudomonas (diameter of inhibitory zone),[1]; 1.0% Silver Nitrate,9 millimeters
same,Pseudomonas (diameter of inhibitory zone),[1]; 2.5% Silver Nitrate,6 millimeters
same,Pseudomonas (diameter of inhibitory zone),[1]; 5.0% Silver Nitrate,6 millimeters
same,Pseudomonas (diameter of inhibitory zone),[1]; 7.5% Silver Nitrate,7 millimeters
same,Pseudomonas (diameter of inhibitory zone),[1]; 10.0% Silver Nitrate,11 millimeters
same,E. Coli (diameter of inhibitory zone),[2]; 0.5% Silver Nitrate,6 millimeters
same,E. Coli (diameter of inhibitory zone),[2]; 1.0% Silver Nitrate,6 millimeters
same,E. Coli (diameter of inhibitory zone),[2]; 2.5% Silver Nitrate,6 millimeters
same,E. Coli (diameter of inhibitory zone),[2]; 5.0% Silver Nitrate,6 millimeters
same,E. Coli (diameter of inhibitory zone),[2]; 7.5% Silver Nitrate,6 millimeters
same,E. Coli (diameter of inhibitory zone),[2]; 10.0% Silver Nitrate,6 millimeters
